Values quoted from earlier work in patent US20240066097A1 (priority 2022, published 2024).
Values after ≈ are worked out from the molar mass of the structure shown.

Assays:
SARS coronaviruses [1] = system: SARS coronaviruses
SARS coronaviruses [2] = system: SARS coronaviruses; remark: listed apart in the source
[3] = in vivo

In the case of `[Ca+2]` [calcium], the dietary calcium absorption is listed as “up to −50%”.

For `O=c1cc(-c2ccc(O)c(O)c2)oc2cc(O)cc(O)c12` [Luteolin], the “IC50” value (SARS coronaviruses [1]) is listed as 5.72 µg/mL (≈ 20 µM).

For `O=c1c(O)c(-c2cc(O)c(O)c(O)c2)oc2cc(O)cc(O)c12` [Myricetin], the “IC50” value (SARS coronaviruses [1]) is listed as 0.86 µg/mL (≈ 2.7 µM).

For `COc1ccc([C@@H]2CC(=O)c3c(O)cc(O)cc3O2)cc1O` [Hesperetin], the “IC50” value (SARS coronaviruses [1]) is listed as 2.5 µg/mL (≈ 8.27 µM).

In the case of `O=C(O[C@@H]1Cc2c(O)cc(O)cc2O[C@@H]1c1cc(O)c(O)c(O)c1)c1cc(O)c(O)c(O)c1` [EGCG, epigallocatechin gallate], the “IC50” value (SARS coronaviruses [1]) is given as 0.389 to 7.56 µg/mL.

For `O=c1c(O)c(-c2ccc(O)cc2)oc2cc(O)cc(O)c12` [Kaempferol], the “IC50” value (SARS coronaviruses [1]) is listed as 62.50 to 125.00 µg/mL and the “EC50 level of the flavonol” value (SARS coronaviruses [2]) is listed as 10 µg/mL.

For `Oc1cc(O)c2c(c1)O[C@@]1(c3ccc(O)c(O)c3)Oc3cc(O)c4c(c3[C@@H]2[C@H]1O)O[C@H](c1ccc(O)c(O)c1)[C@H](O)[C@H]4c1c(O)cc(O)c2c1O[C@H](c1ccc(O)c(O)c1)[C@H](O)C2` [Cinnamtannin B1], the “IC50” value (SARS coronaviruses [1]) is listed as 28.4 µg/mL (≈ 32.8 µM).

For MBL, the half life [3] is listed as 72 to 170 h.

For `O=c1c(O)c(-c2ccc(O)c(O)c2)oc2cc(O)cc(O)c12` [Quercetin], the “IC50” value (SARS coronaviruses [1]) is listed as 7.19 to 60 µg/mL and the “EC50 level of the flavonol” value (SARS coronaviruses [2]) is listed as 60 µg/mL.

B1: Urtica dioica Agglutinin (UDA) (protein, UniProt P11218 24-372, looked up)
Lectin/endochitinase 1: QRCGSQGGGGTCPALWCCSIWGWCGDSEPYCGRTCENKCWSGERSDHRCGAAVGNPPCGQDRCCSVHGWCGGGNDYCSGSKCQYRCSSSVRGPRVALSGNSTANSIGNVVVTEPLFDQMFSHRKDCPSQGFYSYHSFLVAAESFPAFGTIGDVATRKREVAAFLAHISQATSGERSDVENPHAWGLCHINTTTVTENDFCTSSDWPCAAGKKYSPRGPIQLTHNFNYGLAGQAIGEDLIQNPDLVEKDPIISFKTALWFWMSQHDNKPSCHDIVLNANSAANRIPNKGVIGNIISRAFGHDDFAVRSSSIGFYKRYCDMLGVSYGHDLKYWFDNTPSSEFQRIQMRVAA
In the case of B1, the EC50 (SARS-CoV-1) is given as 1.3 µg/mL.
